Reference: ChEMBL document CHEMBL3608295, “Antimicrobial activity of doubly-stapled alanine/lysine-based peptides” (Bioorg Med Chem Lett, 2015)
≈ marks a conversion by molar mass, not a printed value. Starred links: 1 amine or outer side, 2 acyl side, 3 side chain; linkers in the order of their positions; H or OH if unused. Positions of bridges follow the written chain, without caps; N, C: chain ends. Non-standard residues stand in square brackets, D forms with d. Residues, ends and D or L forms follow the SMILES beside them. R5 = C=CCCC[C@@](C)(N)C(=O)O; Suc = O=C(CCC(=O)[*:2])[*:1]

Legend:
[1] = Hemolytic activity in human RBC at 25 uM after 30 mins relative to control; assay type: ADME, cell-based, Erythrocyte; conditions: human red blood cells (RBC), read-out: Activity
[2] = test system: Staphylococcus epidermidis; experiment: Antimicrobial activity against Staphylococcus epidermidis ATCC 12228 after 24 hrs by broth microdilution method; assay type: functional; conditions: ATCC 12228, 24 h
Escherichia coli = experiment: Antimicrobial activity against Escherichia coli ATCC 25922 after 24 hrs by broth microdilution method; assay type: functional; conditions: ATCC 25922, 24 h
Klebsiella pneumoniae = experiment: Antimicrobial activity against Klebsiella pneumoniae ATCC 10031 after 24 hrs by broth microdilution method; assay type: functional; conditions: ATCC 10031, 24 h
Bacillus spizizenii = experiment: Antimicrobial activity against Bacillus subtilis ATCC 6633 after 24 hrs by broth microdilution method; assay type: functional; conditions: ATCC 6633, 24 h
Salmonella typhimurium = experiment: Antimicrobial activity against Salmonella typhimurium ATCC 14028 after 24 hrs by broth microdilution method; assay type: functional, Salmonella enterica subsp. enterica serovar Typhimurium; conditions: Salmonella enterica, ATCC 14028, 24 h
Pseudomonas aeruginosa = experiment: Antimicrobial activity against Pseudomonas aeruginosa ATCC 27853 after 24 hrs by broth microdilution method; assay type: functional; conditions: ATCC 27853, 24 h
[3] = Hemolytic activity in human RBC at 12.5 uM after 30 mins relative to control; assay type: ADME, cell-based, Erythrocyte; conditions: human red blood cells (RBC), read-out: Activity
Staphylococcus aureus = experiment: Antimicrobial activity against Staphylococcus aureus ATCC 6538p after 24 hrs by broth microdilution method; assay type: functional
Shigella dysenteriae = experiment: Antimicrobial activity against Shigella dysenteriae ATCC 9752 after 24 hrs by broth microdilution method; assay type: functional; conditions: ATCC 9752, 24 h
trypsin [4] = experiment: (§1) Stability of the compound assessed as trypsin (unknown origin)-mediated compound degradation at substrate/enzyme ratio of 1600/1 at 25 degC after 10 mins by HPLC analysis; assay type: ADME; conditions: human, trypsin (unknown origin); read-out: Drug degradation
trypsin [5] = experiment: Stability of the compound assessed as trypsin (unknown origin)-mediated compound degradation by measuring compound remaining at substrate/enzyme ratio of 1600/1 at 25 degC after 60 mins by HPLC analysis; assay type: ADME; conditions: human, read-out: Stability
[6] = as §1; assay type: ADME; conditions: human, 10 min

With `CC(=O)N[C@@H](CCCCN)C(=O)N[C@]1(C)CCC/C=C\CCC[C@](C)(C(=O)N[C@@H](CCCCN)C(=O)N[C@@H](CCCCN)C(=O)N[C@]2(C)CCC/C=C\CCC[C@](C)(C(=O)N[C@@H](C)C(=O)N[C@@H](CCCCN)C(N)=O)NC(=O)[C@H](C)NC(=O)[C@H](CCCCN)NC(=O)[C@H](C)NC2=O)NC(=O)[C@H](C)NC(=O)[C@H](CCCCN)NC(=O)[C@H](Cc2c[nH]c3ccccc23)NC1=O` (Ac-K[R5]WKA[R5]KK[R5]AKA[R5]AK-NH2; staple (Z) 2-6, 9-13) the hemolysis at 0.5 h, 25 µM [1] was 42.5%, the MIC [2] was 4.8 µg/mL (≈ 2.67 µM) and the MIC (Escherichia coli) was 25 µg/mL (≈ 13.9 µM). For the same compound, the MIC (Klebsiella pneumoniae) was 100 µg/mL (≈ 55.6 µM), the MIC (Bacillus spizizenii) was 3.1 µg/mL (≈ 1.72 µM) and the MIC (Salmonella typhimurium) was 100 µg/mL (≈ 55.6 µM). For the same compound, the MIC (Pseudomonas aeruginosa) was 200 µg/mL (≈ 111 µM), the hemolysis at 0.5 h, 12.5 µM [3] was 28.9% and the MIC (Staphylococcus aureus) was 4.8 µg/mL (≈ 2.67 µM). For the same compound, the MIC (Shigella dysenteriae) was 50 µg/mL (≈ 27.8 µM).

For `C[C@@H]1NC(=O)[C@H](CCCCN)NC(=O)[C@H](C)NC(=O)[C@](C)(NC(=O)[C@H](CCCCN)NC(=O)[C@H](CCCCN)NC(=O)[C@@]2(C)CCC/C=C\CCC[C@@](C)(NC(=O)[C@H](CCCCN)NC(=O)CCC(=O)O)C(=O)N[C@@H](C)C(=O)N[C@@H](CCCCN)C(=O)N[C@@H](Cc3c[nH]c4ccccc34)C(=O)N2)CCC/C=C\CCC[C@](C)(C(=O)N[C@@H](C)C(=O)N[C@@H](CCCCN)C(N)=O)NC1=O` (Suc-K[R5]AKW[R5]KK[R5]AKA[R5]AK-NH2; staple (Z) 2-6, 9-13), the hemolysis at 0.5 h, 25 µM [1] was 32.6%, the MIC [2] was 1.6 µg/mL (≈ 0.861 µM) and the MIC (Escherichia coli) was 12.5 µg/mL (≈ 6.73 µM). For the same compound, the MIC (Klebsiella pneumoniae) was 25 µg/mL (≈ 13.5 µM), the MIC (Bacillus spizizenii) was 1.6 µg/mL (≈ 0.861 µM) and the MIC (Salmonella typhimurium) was greater than 200 µg/mL. It also gave an MIC (Pseudomonas aeruginosa) of 50 µg/mL (≈ 26.9 µM), a hemolysis at 0.5 h, 12.5 µM [3] of 19.5% and an MIC (Staphylococcus aureus) of 1.6 µg/mL (≈ 0.861 µM). For the same compound, the MIC (Shigella dysenteriae) was 50 µg/mL (≈ 26.9 µM).

`CC(=O)N[C@@H](CCCCN)C(=O)N[C@]1(C)CCC/C=C\CCC[C@](C)(C(=O)N[C@@H](CCCCN)C(=O)N[C@@H](CCCCN)C(=O)N[C@]2(C)CCC/C=C\CCC[C@](C)(C(=O)N[C@@H](C)C(=O)N[C@@H](CCCCN)C(N)=O)NC(=O)[C@H](C)NC(=O)[C@H](CCCCN)NC(=O)[C@H](C)NC2=O)NC(=O)[C@H](Cc2c[nH]c3ccccc23)NC(=O)[C@H](CCCCN)NC(=O)[C@H](C)NC1=O` (Ac-K[R5]AKW[R5]KK[R5]AKA[R5]AK-NH2; staple (Z) 2-6, 9-13) gave a hemolysis at 0.5 h, 25 µM [1] of 38.5%, an MIC [2] of 1.6 µg/mL (≈ 0.889 µM) and an MIC (Escherichia coli) of 18.8 µg/mL (≈ 10.4 µM). The MIC (Klebsiella pneumoniae) was 37.5 µg/mL (≈ 20.8 µM), the MIC (Bacillus spizizenii) was 1.6 µg/mL (≈ 0.889 µM) and the MIC (Salmonella typhimurium) was 37.5 µg/mL (≈ 20.8 µM). It also gave an MIC (Pseudomonas aeruginosa) of 25 µg/mL (≈ 13.9 µM), a hemolysis at 0.5 h, 12.5 µM [3] of 22% and an MIC (Staphylococcus aureus) of 1.6 µg/mL (≈ 0.889 µM). It also gave an MIC (Shigella dysenteriae) of 25 µg/mL (≈ 13.9 µM).

For `C[C@@H]1NC(=O)[C@H](CCCCN)NC(=O)[C@H](C)NC(=O)[C@](C)(NC(=O)[C@H](CCCCN)NC(=O)[C@H](CCCCN)NC(=O)[C@@]2(C)CCC/C=C\CCC[C@@](C)(NC(=O)[C@@H](N)CCCCN)C(=O)N[C@@H](C)C(=O)N[C@@H](CCCCN)C(=O)N[C@@H](Cc3c[nH]c4ccccc34)C(=O)N2)CCC/C=C\CCC[C@](C)(C(=O)N[C@@H](C)C(=O)N[C@@H](CCCCN)C(N)=O)NC1=O` (H-K[R5]AKW[R5]KK[R5]AKA[R5]AK-NH2; staple (Z) 2-6, 9-13), the hemolysis at 0.5 h, 25 µM [1] was 25.5%, the MIC [2] was 1.6 µg/mL (≈ 0.91 µM) and the MIC (Escherichia coli) was 3.1 µg/mL (≈ 1.76 µM). The MIC (Klebsiella pneumoniae) was 12.5 µg/mL (≈ 7.11 µM), the MIC (Bacillus spizizenii) was 1.6 µg/mL (≈ 0.91 µM) and the MIC (Salmonella typhimurium) was 6.3 µg/mL (≈ 3.59 µM). For the same compound, the MIC (Pseudomonas aeruginosa) was 6.3 µg/mL (≈ 3.59 µM), the hemolysis at 0.5 h, 12.5 µM [3] was 13.5% and the MIC (Staphylococcus aureus) was 1.6 µg/mL (≈ 0.91 µM). It also gave an MIC (Shigella dysenteriae) of 12.5 µg/mL (≈ 7.11 µM).

`CC(=O)N[C@@H](CCCCN)C(=O)N[C@]1(C)CCC/C=C\CCC[C@](C)(C(=O)N[C@@H](CCCCN)C(=O)N[C@@H](CCCCN)C(=O)N[C@@H](C)C(=O)N[C@@H](C)C(=O)N[C@@H](CCCCN)C(=O)N[C@@H](C)C(=O)N[C@@H](C)C(=O)N[C@@H](Cc2c[nH]c3ccccc23)C(=O)N[C@@H](CCCCN)C(N)=O)NC(=O)[C@H](C)NC(=O)[C@H](CCCCN)NC(=O)[C@H](C)NC1=O` (Ac-K[R5]AKA[R5]KKAAKAAWK-NH2; staple (Z) 2-6) gave a hemolysis at 0.5 h, 25 µM [1] of less than 1%, an MIC [2] of 75 µg/mL (≈ 44.3 µM) and an MIC (Escherichia coli) of 3.1 µg/mL (≈ 1.83 µM). For the same compound, the MIC (Klebsiella pneumoniae) was 18.8 µg/mL (≈ 11.1 µM), the MIC (Bacillus spizizenii) was 25 µg/mL (≈ 14.8 µM) and the MIC (Salmonella typhimurium) was greater than 200 µg/mL. It also gave an MIC (Pseudomonas aeruginosa) of 100 µg/mL (≈ 59.1 µM), a metabolised at 10 min (trypsin [4]) of 73% and a hemolysis at 0.5 h, 12.5 µM [3] of less than 1%. The MIC (Staphylococcus aureus) was 9.4 µg/mL (≈ 5.56 µM) and the MIC (Shigella dysenteriae) was 18.8 µg/mL (≈ 11.1 µM).

Work on `CC(=O)N[C@@H](CCCCN)C(=O)N[C@]1(C)CCC/C=C\CCC[C@](C)(C(=O)N[C@@H](CCCCN)C(=O)N[C@@H](CCCCN)C(=O)N[C@]2(C)CCC/C=C\CCC[C@](C)(C(=O)N[C@@H](C)C(=O)N[C@@H](CCCCN)C(N)=O)NC(=O)[C@H](Cc3c[nH]c4ccccc34)NC(=O)[C@H](CCCCN)NC(=O)[C@H](C)NC2=O)NC(=O)[C@H](C)NC(=O)[C@H](CCCCN)NC(=O)[C@H](C)NC1=O` (Ac-K[R5]AKA[R5]KK[R5]AKW[R5]AK-NH2; staple (Z) 2-6, 9-13) yielded a hemolysis at 0.5 h, 25 µM [1] of 42.5%, an MIC [2] of 4.8 µg/mL (≈ 2.67 µM) and an MIC (Escherichia coli) of 50 µg/mL (≈ 27.8 µM). The MIC (Klebsiella pneumoniae) was 100 µg/mL (≈ 55.6 µM), the MIC (Bacillus spizizenii) was 1.6 µg/mL (≈ 0.889 µM) and the MIC (Salmonella typhimurium) was 200 µg/mL (≈ 111 µM). The MIC (Pseudomonas aeruginosa) was 100 µg/mL (≈ 55.6 µM), the hemolysis at 0.5 h, 12.5 µM [3] was 25.3% and the MIC (Staphylococcus aureus) was 3.1 µg/mL (≈ 1.72 µM). The MIC (Shigella dysenteriae) was 50 µg/mL (≈ 27.8 µM).

`CC(=O)N[C@@H](CCCCN)C(=O)N[C@]1(C)CCC/C=C\CCC[C@](C)(C(=O)N[C@@H](CCCCN)C(=O)N[C@@H](CCCCN)C(=O)N[C@]2(C)CCC/C=C\CCC[C@](C)(C(=O)N[C@@H](Cc3c[nH]c4ccccc34)C(=O)N[C@@H](CCCCN)C(N)=O)NC(=O)[C@H](C)NC(=O)[C@H](CCCCN)NC(=O)[C@H](C)NC2=O)NC(=O)[C@H](C)NC(=O)[C@H](CCCCN)NC(=O)[C@H](C)NC1=O` (Ac-K[R5]AKA[R5]KK[R5]AKA[R5]WK-NH2; staple (Z) 2-6, 9-13) gave a hemolysis at 0.5 h, 25 µM [1] of 38.8%, an MIC [2] of 3.1 µg/mL (≈ 1.72 µM) and an MIC (Escherichia coli) of 25 µg/mL (≈ 13.9 µM). It also gave an MIC (Klebsiella pneumoniae) of 200 µg/mL (≈ 111 µM), an MIC (Bacillus spizizenii) of 1.6 µg/mL (≈ 0.889 µM) and an MIC (Salmonella typhimurium) of 100 µg/mL (≈ 55.6 µM). The MIC (Pseudomonas aeruginosa) was 100 µg/mL (≈ 55.6 µM), the remaining at 1 h (trypsin [5]) was greater than 85% and the hemolysis at 0.5 h, 12.5 µM [3] was 22.1%. It also gave an MIC (Staphylococcus aureus) of 4.8 µg/mL (≈ 2.67 µM) and an MIC (Shigella dysenteriae) of 25 µg/mL (≈ 13.9 µM).

Work on Ac-KAAKAAKKAAKAAWK-NH2 yielded a hemolysis at 0.5 h, 25 µM [1] of less than 1%, an MIC [2] greater than 200 µg/mL and an MIC (Escherichia coli) greater than 200 µg/mL. The MIC (Klebsiella pneumoniae) was greater than 200 µg/mL, the MIC (Bacillus spizizenii) was greater than 200 µg/mL and the MIC (Salmonella typhimurium) was greater than 200 µg/mL. The MIC (Pseudomonas aeruginosa) was greater than 200 µg/mL, the Stability [6] was “Unstable” and the hemolysis at 0.5 h, 12.5 µM [3] was less than 1%. It also gave an MIC (Staphylococcus aureus) greater than 200 µg/mL and an MIC (Shigella dysenteriae) greater than 200 µg/mL.
